PMC3684613 (PLoS ONE, 2013)
Where two headings read alike, the source gives them in different places.

What was measured:
P. falciparum 3D7 [1] = test system: P. falciparum 3D7; design: method as in ChEMBL-NTD; details: ref ChEMBL-NTD, cited from earlier work
P. falciparum 3D7 [2] = assay: DAPI stain fluorescent high content imaging assay, P. falciparum 3D7 (confirmatory screen, Avery); details: for EC50: 3D7, read-out: EC50_nM; for inhibition of growth at 5 µM: 3D7, read-out: percent_inh @ 5 uM
[3] = original screening data, source (GSK, GNF, StJude), several values separated by ';' in order of sources
[4] = values follow the order of the source (GNF; GSK; StJude)

SMILES	EC50 (P. falciparum 3D7 [2]; Plasmodium falciparum) [nM]	inhibition of growth at 5 µM (P. falciparum 3D7 [2]; Plasmodium falciparum) [%]	also measured
O=C(NC1CCN(Cc2ccccc2)CC1)c1cc(-c2cccnc2)nc2ccc(Cl)cc12 [MMV020490]	1010	91	EC50 (P. falciparum 3D7 [1]; [3]): 759 nM
CC1CN(C(=O)c2sc3ccccc3c2Cl)CC(C)O1 (stereo not drawn) [MMV020492]	25.5	95	EC50 (P. falciparum 3D7 [1]; source GSK (TCMDC id)): 87.9 nM
CNCCCNc1ccnc2cc(Cl)ccc12 [MMV020500]	82.2	98	EC50 (P. falciparum 3D7 [1]; source GSK (TCMDC id)): 62.4 nM
CN(C)CCCNCc1ccc(-c2ccc(F)c(Cl)c2)o1 [MMV020505]	876	96	EC50 (P. falciparum 3D7 [1]; source GSK (TCMDC ids)): 802 nM
CCN1CCN(Cc2ccc(NC(=O)c3cc4ccc5cccnc5c4[nH]3)cc2)CC1 [MMV020548]	361	70	EC50 (P. falciparum 3D7 [1]; source GSK (TCMDC id)): 848 nM
CC1CCN(Cc2ccc(NC(=O)c3cc4ccc5cccnc5c4[nH]3)cc2)CC1 [MMV020549]	274	97	EC50 (P. falciparum 3D7 [1]; source GSK (TCMDC id)): 779 nM
O=C(Nc1ccc(CN2CCOCC2)cc1)c1ccc(-c2cc(Cl)ccc2Cl)o1 [MMV020651]	1940	97	EC50 (P. falciparum 3D7 [1]; [3]): 613 nM
CCC(O)c1ccc(Br)cc1NC(=O)c1cccc(Cl)c1 (stereo not drawn) [MMV020654]	640	97	EC50 (P. falciparum 3D7 [1]; [3]): 1020 nM
COc1ccc(-c2nonc2NC(=O)c2cccc(Cl)c2)cc1OC [MMV020660]	–	–	EC50 (P. falciparum 3D7 [1]; [3]): 876 nM; % inh. At 2.5 uM (P. falciparum 3D7 [2]; 2.5 uM (Comment column; solubility issue at 5 uM)): 97%
CC(=O)Nc1nnc(SCc2c(C)cc(C(C)(C)C)cc2C)s1 [MMV020700]	871	96	EC50 (P. falciparum 3D7 [1]; [3]): 704 nM
COc1cc(-c2nc(-c3ccccc3)c(-c3ccccc3)[nH]2)cc(OC)c1O [MMV020750]	1180	97	EC50 (P. falciparum 3D7 [1]; [4]): 774 nM
Oc1ccccc1CNCC12CC3CC(CC(C3)C1)C2 [MMV020788]	22.6	96	EC50 (P. falciparum 3D7 [1]; source GSK (TCMDC id)): 279 nM
COc1ccc(Br)cc1C1Nc2ccc3ccccc3c2C2=C1C(=O)CC(c1ccccc1)C2 (stereo not drawn) [MMV020885]	180	95	EC50 (P. falciparum 3D7 [1]; source GSK (TCMDC id)): 590 nM
Cc1ccc(-c2nc3ccccc3o2)cc1NCc1cc(Cc2ccccc2)ccc1O [MMV020912]	–	64	EC50 (P. falciparum 3D7 [1]; [4]): 1030 nM
CCC(=O)Nc1nnc(Cc2ccc(OC)c(OC)c2)s1 [MMV020942]	–	47	EC50 (P. falciparum 3D7 [1]; source GSK (TCMDC ids)): 910 nM
COc1cc(SC)ccc1C(=O)N1CCCC(C)C1 (stereo not drawn) [MMV056726]	4000	–	EC50 (P. falciparum 3D7 [1]; [3]): 9810 nM; inhibition of growth at 2 µM (P. falciparum 3D7 [2]; Plasmodium falciparum, 3D7, read-out: percent_inh @ 2 uM): 45%
CN(C)c1ccc(N=Cc2ccc(N3CCOCC3)cc2)cc1 [MMV073843]	–	96	EC50 (P. falciparum 3D7 [1]; [4]): 175 nM
COc1cc2c(cc1OC)C1=NNC(=O)C1=NC(C)(C)C2 [MMV084940]	1040	–	EC50 (P. falciparum 3D7 [1]; [3]): 1580 nM
COc1ccccc1N=C1C(=O)c2ccccc2C(O)=C1N1CCCCC1 [MMV085203]	5.3	98	EC50 (P. falciparum 3D7 [1]; source GNF (GNF-Pf id)): 28 nM
CCOc1ccc(-n2cc(-c3ccccc3)c3c(SCc4cc(C)ccc4C)ncnc32)cc1 [MMV085471]	1700	97	EC50 (P. falciparum 3D7 [1]; source GNF (GNF-Pf ids)): 2010 nM
CCCCCC(=O)N1c2ccccc2N=C2CC(c3ccc(OC)c(OC)c3)CC(O)=C2C1c1ccc(C(F)(F)F)cc1 (stereo not drawn) [MMV085583]	237	100	EC50 (P. falciparum 3D7 [1]; source GNF (GNF-Pf id)): 107 nM
Cc1ccc(C(=O)c2oc3ccc4c(C)cc(=O)oc4c3c2C)cc1 [MMV086103]	906	96	EC50 (P. falciparum 3D7 [1]; [4]): 1030 nM
COc1cc(CNCCc2ccc(Cl)cc2)cc(OC)c1O [MMV128432]	1790	97	EC50 (P. falciparum 3D7 [1]; [4]): 6890 nM
CC(C)(C)c1ccc(C(=O)Nc2nc3ccccc3s2)cc1 [MMV142383]	–	81	EC50 (P. falciparum 3D7 [1]; source StJude): 15000 nM
CCOC(=O)c1cnc2c(CC)cccc2c1O [MMV498479]	–	87	EC50 (P. falciparum 3D7 [1]; source GNF (GNF-Pf ids)): 1660 nM

SMILES	EC50 (P. falciparum 3D7 [2]; Plasmodium falciparum) [nM]	inhibition of growth at 5 µM (P. falciparum 3D7 [2]; Plasmodium falciparum) [%]	also measured
CCN(CC)CCCNc1ccnc2cc3ccccc3cc12 [MMV665783]	–	90	EC50 (P. falciparum 3D7 [1]; source GNF (GNF-Pf ids)): 33.8 nM
CC(C)(C)c1ccc(O)c(CNC2CCCCC2)c1 [MMV665785]	161	96	EC50 (P. falciparum 3D7 [1]; source GNF (GNF-Pf id)): 250 nM; EC50 (P. falciparum 3D7 [1]; source GSK (TCMDC id)): 264 nM
O=c1cc(NC2CCN(CCCc3ccccc3)CC2)c2cc(Cl)ccc2o1 [MMV665786]	846	97	EC50 (P. falciparum 3D7 [1]; source GNF (GNF-Pf ids)): 408 nM
CC(NCc1ccccc1)c1cc(Cl)ccc1O (stereo not drawn) [MMV665789]	603	95	EC50 (P. falciparum 3D7 [1]; source GNF): 592 nM
FC(F)(F)c1cccc(Nc2nc3ccccc3nc2Nc2cccc(C(F)(F)F)c2)c1 [MMV665794]	313	99	EC50 (P. falciparum 3D7 [1]; source GSK (TCMDC ids)): 137 nM
CCOc1cc(Br)c(C(C)NC(=O)c2cccc(OC)c2)cc1OCC (stereo not drawn) [MMV665796]	1430	96	EC50 (P. falciparum 3D7 [1]; source GSK): 168 nM
CCCCOC(=O)c1ccc(Nc2cc(C)nc3ccc(OC)cc23)cc1 [MMV665797]	584	99	EC50 (P. falciparum 3D7 [1]; source GSK (TCMDC ids)): 640 nM
FC(F)(F)c1cccc(Nc2nc(-c3ccccc3)nc3ncccc23)c1 [MMV665798]	–	74	EC50 (P. falciparum 3D7 [1]; source GSK): 802 nM
COc1ccc(C(=O)Nc2ccc(Cl)cc2C(=O)Nc2ccncc2)cc1 [MMV665799]	–	93	EC50 (P. falciparum 3D7 [1]; source GSK): 822 nM
CCOc1cc(Cl)c(C(C)NC(=O)c2ccccc2)cc1OCC (stereo not drawn) [MMV665800]	1370	96	EC50 (P. falciparum 3D7 [1]; source GSK): 875 nM
CCOc1cc(Cl)c(C(C)NC(=O)c2cccc(OC)c2)cc1OCC (stereo not drawn) [MMV665803]	728	98	EC50 (P. falciparum 3D7 [1]; source GSK): 956 nM
CCOc1ccc(-c2nonc2NC(=O)c2cccc(C)c2)cc1OCC [MMV665805]	117	86	EC50 (P. falciparum 3D7 [1]; source StJude): 61.9 nM
Cc1c(C)n(CC(O)CNC2CCCCC2C)c2ccccc12 (stereo not drawn) [MMV665806]	769	96	EC50 (P. falciparum 3D7 [1]; [3]): 527 nM
O=C(Nc1cccc(C(F)(F)F)c1)c1cc(Cl)ccc1O [MMV665807]	–	93	EC50 (P. falciparum 3D7 [1]; source StJude): 973 nM
Oc1ccc(Br)cc1CN1CCN(Cc2ccc(Cl)cc2)CC1 [MMV665809]	–	97	EC50 (P. falciparum 3D7 [1]; [4]): 1480 nM
CCc1ccc(CNCC(O)c2ccccc2)cc1 (stereo not drawn) [MMV665812]	–	97	EC50 (P. falciparum 3D7 [1]; source StJude): 2170 nM
CCOC(=O)c1cnc2ccc(OC)cc2c1NCc1ccccc1 [MMV665813]	–	87	EC50 (P. falciparum 3D7 [1]; [4]): 2770 nM
CC(C)(C)CC(C)(C)NCC(O)COc1ccc2c(c1)CCC2 (stereo not drawn) [MMV665817]	–	78	EC50 (P. falciparum 3D7 [1]; source StJude): 4420 nM
COc1ccc2c(=O)cc(C(Cl)(Cl)Cl)oc2c1 [MMV665820]	520	94	EC50 (P. falciparum 3D7 [1]; source StJude (SJ id)): 15000 nM
Cn1c(C(=O)c2cccc3ccccc23)nc2ccccc21 [MMV665824]	–	89	EC50 (P. falciparum 3D7 [1]; source GNF): 6.92 nM
COc1cccc(NC(=O)Cn2c(C)c(C#N)c3ccccc32)c1 [MMV665826]	1090	95	EC50 (P. falciparum 3D7 [1]; source GNF): 79.6 nM; EC50 (P. falciparum 3D7 [1]; source GSK): 878 nM
CCOC(=O)c1cn(CC)c2cc(N3CCCCC3)c(F)cc2c1=O [MMV665827]	119	100	EC50 (P. falciparum 3D7 [1]; source GNF (GNF-Pf id)): 166 nM; EC50 (P. falciparum 3D7 [1]; source GSK (TCMDC id)): 125 nM
CC1CC2=C(CC1CNCCCN(C)C)C(C)(C)CCC2 (stereo not drawn) [MMV665830]	1000	98	EC50 (P. falciparum 3D7 [1]; [4]): 250 nM
CCOC(=O)c1c(NC(=O)c2ccccc2)sc2c(O)c(CN(CC)CC)ccc12 [MMV665831]	205	96	EC50 (P. falciparum 3D7 [1]; source GNF (GNF-Pf id)): 267 nM; EC50 (P. falciparum 3D7 [1]; source GSK (TCMDC id)): 969 nM
